Patent publication US10750743B2, “Pyridazinone herbicides” (E.I. DU PONT DE NEMOURS AND COMPANY, priority 2015, dated 2020)

How the values were obtained:
Type in all cases: in vivo
[1] = system: galium (catchweed bedstraw, Galium aparine); test: Test A postemergence application, visual injury rating; conditions: 0 to 100 scale, 0 no effect, 100 complete control
Procedure, shortened: (§1)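 Seeds sown in a loam soil–sand blend received a directed preemergence soil spray of test chemical in a non-phytotoxic solvent mixture with surfactant. Postemergence plants were sprayed at 2 to 10 cm, one- to two-leaf stage. After approximately 10 d in greenhouse, injury was visually rated 0 (no effect) to 100 (complete control) against untreated controls.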

[2] = system: kochia (Kochia scoparia); test: as above; conditions: 0 to 100 scale, 0 no effect, 100 complete control
Procedure, shortened: as §1

[3] = system: ryegrass, It. (Italian ryegrass, Lolium multiflorum); test: as above; conditions: 0 to 100 scale, 0 no effect, 100 complete control
Procedure, shortened: as §1

[4] = system: blackgrass (Alopecurus myosuroides); test: as above; conditions: 0 to 100 scale, 0 no effect, 100 complete control
Procedure, shortened: as §1

[5] = system: wheat (Triticum aestivum); test: as above; conditions: 0 to 100 scale, 0 no effect, 100 complete control
Procedure, shortened: as §1

[6] = system: pigweed (Amaranthus retroflexus); test: as above; conditions: 0 to 100 scale, 0 no effect, 100 complete control
Procedure, shortened: as §1

[7] = system: corn (Zea mays); test: as above; conditions: 0 to 100 scale, 0 no effect, 100 complete control
Procedure, shortened: as §1

[8] = system: ragweed (common ragweed, Ambrosia elatior); test: as above; conditions: 0 to 100 scale, 0 no effect, 100 complete control
Procedure, shortened: as §1

[9] = system: Foxtail, Green; test: as above; conditions: 0 to 100 scale, 0 no effect, 100 complete control
[10] = system: barnyardgrass (Echinochloa crus-galli); test: as above; conditions: 0 to 100 scale, 0 no effect, 100 complete control
Procedure, shortened: as §1

[11] = system: ducksalad (Heteranthera limosa); test: Test B flooded paddy test, visual rating; conditions: Flood, 250 g ai/ha, applied to paddy water, rated after 13 to 15 d
Procedure, shortened: (§2)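 Plants at the 2-leaf stage were flooded to 3 cm above soil, and test compounds were applied directly into the paddy water, which was held at that depth throughout. After 13 to 15 d in a greenhouse, injury was rated visually against untreated controls on a 0–100 scale (0 no effect, 100 complete control).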

[12] = system: rice (Oryza sativa); test: Test B flooded paddy test, visual rating; conditions: Flood, 250 g ai/ha, applied to paddy water, rated after 13 to 15 d
Procedure, shortened: as §2

[13] = system: sedge, umbrella (small-flower umbrella sedge, Cyperus difformis); test: Test B flooded paddy test, visual rating; conditions: Flood, 250 g ai/ha, applied to paddy water, rated after 13 to 15 d
Procedure, shortened: as §2

[14] = system: barnyardgrass (Echinochloa crus-galli); test: Test B flooded paddy test, visual rating; conditions: Flood, 250 g ai/ha, applied to paddy water, rated after 13 to 15 d
Procedure, shortened: as §2

[15] = system: kochia (Kochia scoparia); test: Test A preemergence, directed soil spray, visual injury rating; conditions: 0 is no effect, 100 is complete control
Procedure, shortened: as §1

[16] = system: ryegrass, It. (Italian ryegrass, Lolium multiflorum); test: as above; conditions: 0 is no effect, 100 is complete control
Procedure, shortened: as §1

[17] = system: pigweed (Amaranthus retroflexus); test: as above; conditions: 0 is no effect, 100 is complete control
Procedure, shortened: as §1

[18] = system: ragweed (common ragweed, Ambrosia elatior); test: as above; conditions: 0 is no effect, 100 is complete control
Procedure, shortened: as §1

[19] = system: Foxtail, Green; test: as above; conditions: 0 is no effect, 100 is complete control
[20] = system: barnyardgrass (Echinochloa crus-galli); test: as above; conditions: 0 is no effect, 100 is complete control
Procedure, shortened: as §1

Compound: Cc1nn(C)c(=O)c(-c2ccc(Cl)c3ccoc23)c1O [Compound 56]
- Galium plant response rating ([1]; 31 g ai/ha): 60
- Galium plant response rating ([1]; 125 g ai/ha): 100
- Kochia plant response rating ([2]; 31 g ai/ha): 0
- Kochia plant response rating ([2]; 125 g ai/ha): 0
- Ryegrass, It. plant response rating ([3]; 31 g ai/ha): 50
- Ryegrass, It. plant response rating ([3]; 125 g ai/ha): 50
- Blackgrass plant response rating ([4]; 31 g ai/ha): 0
- Blackgrass plant response rating ([4]; 125 g ai/ha): 0
- Wheat plant response rating ([5]; 31 g ai/ha): 0
- Wheat plant response rating ([5]; 125 g ai/ha): 0
- Pigweed plant response rating ([6]; 31 g ai/ha): 0
- Pigweed plant response rating ([6]; 125 g ai/ha): 0
- Corn plant response rating ([7]; 31 g ai/ha): 0
- Corn plant response rating ([7]; 125 g ai/ha): 0
- Ragweed plant response rating ([8]; 31 g ai/ha): 0
- Ragweed plant response rating ([8]; 125 g ai/ha): 0
- Foxtail, Green plant response rating ([9]; 31 g ai/ha): 0
- Foxtail, Green plant response rating ([9]; 125 g ai/ha): 10
- Barnyardgrass plant response rating ([10]; 31 g ai/ha): 0
- Barnyardgrass plant response rating ([10]; 125 g ai/ha): 10
- Ducksalad plant response rating (0 to 100 scale, 0 is no effect, 100 is complete control) [11]: 0
- Rice plant response rating (0 to 100 scale, 0 is no effect, 100 is complete control) [12]: 0
- Sedge, Umbrella plant response rating (0 to 100 scale, 0 is no effect, 100 is complete control) [13]: 0
- Barnyardgrass plant response rating (0 to 100 scale, 0 is no effect, 100 is complete control) [14]: 0
- Plant response rating (0 to 100 scale), Kochia ([15]; 31 g ai/ha): 0
- Plant response rating (0 to 100 scale), Kochia ([15]; 125 g ai/ha): 0
- Plant response rating (0 to 100 scale), Ryegrass, It. ([16]; 31 g ai/ha): 10
- Plant response rating (0 to 100 scale), Ryegrass, It. ([16]; 125 g ai/ha): 70
- Plant response rating (0 to 100 scale), Pigweed ([17]; 31 g ai/ha): 0
- Plant response rating (0 to 100 scale), Pigweed ([17]; 125 g ai/ha): 40
- Plant response rating (0 to 100 scale), Ragweed ([18]; 31 g ai/ha): 0
- Plant response rating (0 to 100 scale), Ragweed ([18]; 125 g ai/ha): 0
- Plant response rating (0 to 100 scale), Foxtail, Green ([19]; 31 g ai/ha): 0
- Plant response rating (0 to 100 scale), Foxtail, Green ([19]; 125 g ai/ha): 0
- Plant response rating (0 to 100 scale), Barnyardgrass ([20]; 31 g ai/ha): 0
- Plant response rating (0 to 100 scale), Barnyardgrass ([20]; 125 g ai/ha): 0
